Laboratory results taken from patent US11180518B2, “Phenyl-heterocycle-phenyl derivatives for use in the treatment or prevention of melanoma” (MAX-PLANCK-GESELLSCHAFT ZUR FÖRDERUNG DER WISSENSCHAFTEN …, priority 2017, dated 2021).

Experiments:
[1] = system: α-synuclein-expressing WM983-B human metastatic melanoma cells; assay: Test screening of DPP compounds in human metastatic melanoma cells (cell death read-out); assay type: cell-based; details: WM983B, second 10 μM dose at 48 hr, serum-free culture medium, read at 48 h / 96 h
Procedure: To determine the impact of the DPP compounds on high-level α-synuclein-expressing human melanoma cells, WM983-B melanoma cells were plated, in duplicate, in 12-well tissue culture plates in cell culture medium containing 10% fetal bovine serum. Twenty-four hours later, the cells were rinsed three-times with serum-free medium, followed by addition of serum-free medium containing each DPP compound at a dose of 10 μM. Following incubation of the DPP compound-treated cells at 37° C. for 48 hr, each DPP compound was added to the cells at a second 10 μM dose. Using light microscopy, changes in the cells' morphology>detachment of the cells from the cell culture dish/floating in the cell culture medium>cell death were recorded on a scale of 0, +, ++, +++, ++++ at the 24 hr, 48 hr, 72 hr and 96 hr time-point following addition of DPP compound.
The DPP compounds were added to α-synuclein-expressing WM983-B human metastatic melanoma cells.

SK-MEL-5 melanoma cells [2] = assay: Cell morphology (phase-contrast); assay type: cell-based, human; details: increasing doses, serum-free medium; time- and dose-dependent
Source text: (§1) To assess the possible impact of anle138b as well as anle138c on the different melanoma cell lines, WM983-A, WM983-B and SK-MEL-5, we treated them with increasing doses of either compound, dissolved in dimethyl sulfoxide (DMSO), and added to serum-free culture medium. […] We also observed that treatment with anle138b caused a more rapid morphological change than anle138c. To determine whether the effect of the two anle compounds was related to the amount of α-synuclein produced by the cells, we compared the proliferation of the (VGP) WM983-A high-level and the (RGP/VGP) WM1158 low-level α-synuclein-producing melanoma cells over a period of 96 hr, with replenishment of each anle compound at 48 hr (FIGS. 8A and B).
(§2) 10 or 30 mM stock solutions of anle138b or anle138c were made in DMSO. Since anle138b as well as anle138c bind strongly to FBS, melanoma cells, plated for 24 hr in tissue-culture medium containing 10% FBS, were rinsed three times with serum-free medium prior to addition of anle138b, anle138c, or an equivalent volume of DMSO only in serum-free medium. Forty-eight hours later, the cell culture medium was removed, followed by addition of an equivalent dose of anle138b or anle138c, or DMSO only in serum-free culture medium. […] Proliferation of melanoma cells that had received DMSO only, or were treated with anle138b was determined by counting the cells with a hemocytometer.
(§3) Cell morphology. Phase-contrast or DIC images of the melanoma cells that had been treated for various times with anle138b or anle138c, or had received DMSO only were captured with a 10×NA 0.6 objective on a Zeiss Axiovert 100 microscope with a Hamamatsu Orca charge-coupled device (CCD) camera. At least four images, at random areas per culture dish, were recorded for each time point.

WM1158 melanoma cells [3] = assay: Cell morphology (phase-contrast); assay type: cell-based, human; details: 10 μM, up to 96 hr, replenishment at 48 hr
Source text: as §1, §2, §3

WM983-B melanoma cells [4] = assay: Cell morphology (phase-contrast); assay type: cell-based, human; details: increasing doses, serum-free medium; time- and dose-dependent
Source text: as §1, §2, §3

SK-MEL-5 melanoma cells [5] = assay: Autophagy: LC3 immunofluorescence; assay type: cell-based, human; details: compared with WM983-B cells
Procedure: (§4) We observed a clear effect of the anle compounds on the autophagy pathway of the melanoma cells. […] Following addition of anle138c, the effect was seen later with levels of 8% at 24 hr and 78% after 96 hr.
(§5) Autophagy. WM983-B and SK-MEL-5 cells that for 24 or 48 hr were treated with anle138 or had received DMSO only were fixed for 20 min with 3.7% PFA, permeabilized, blocked, and probed with an anti-LC3B [clone 2G6] antibody (nanoTools Antikörpertechnik GmbH & Co. KG, Teningen, Germany), followed by a donkey anti-mouse Alexa-488 secondary antibody and Draq5 DNA counterstain. Confocal image stacks were obtained with a 63×NA 1.2 objective on a Zeiss LSM 510 Meta confocal microscope.

WM983-B melanoma cells [6] = assay: Autophagy: LC3 immunofluorescence; assay type: cell-based, human
Procedure: as §4, §5

WM1158 melanoma cells [7] = assay: Melanoma cell proliferation analysis; assay type: cell-based, human; details: over 96 hr, replenishment at 48 hr
Source text: as §1, §2

α-synuclein monomers = α-synuclein monomers (Homo sapiens, UniProt P37840); details: cited from earlier work
[8] = system: high-level α-synuclein expressing cell lines WM983-B; assay: Initial screen of sixteen compounds from the DPP library; assay type: cell-based, human
Binding to FBS = assay type: in vitro ADME
[9] = system: WM983-A, WM983-B, and SK-MEL-5 melanoma cell lines; assay: Apoptosis markers in treated melanoma cells; assay type: cell-based, human
Source text: Although the morphological changes in the WM983-A, WM983-B, and SK-MEL-5 melanoma cell lines following addition of anle138b occurred quite rapidly, they were not indicative of the cells undergoing apoptosis. […] Differential interference contrast (DIC) images of the morphology of the anle138b-treated WM983-B, SK-MEL-5, and WM1158 melanoma cells from the same panels are shown in FIG. 9.

Row | SMILES | cytotoxicity at 10 µM [1] [%] | further results
1 | Brc1cccc(-c2cc(-c3ccc4c(c3)OCCCO4)n[nH]2)c1 | 100 | 
2 | Brc1cccc(-c2cc(-c3ccc4c(c3)OCCO4)n[nH]2)c1 | 100 | 
3 | Brc1cccc(-c2nc(-c3ccc4c(c3)OCCO4)co2)c1 | 100 | 
4 | Brc1cccc(-c2cc(-c3ccc4nccnc4c3)n[nH]2)c1 | 100 | 
5 | CN1CCOc2cc(-c3cc(-c4cccc(Br)c4)[nH]n3)ccc21 | 100 | 
6 | COc1ccc(-c2cc(-c3cccc(F)c3)on2)cc1OC | 100 | 
7 | Oc1ccc(-c2cc(-c3cccc(F)c3)on2)cc1O | 100 | 
8 | Oc1ccc(-c2noc(-c3cccc(F)c3)n2)cc1O | 100 | 
9 | Brc1cccc(-c2c[nH]c(-c3ccc4c(c3)OCO4)n2)c1 | 100 | 
10 | FCCn1nc(-c2cccc(Br)c2)cc1-c1ccc2c(c1)OCO2 | 100 | 
11 | Nc1cccc(-c2ncc(-c3ccc(Cl)c(Cl)c3)o2)c1 | 100 | 
12 | COc1cccc(-c2c[nH]c(-c3cccc(Br)c3)n2)c1 | 100 | 
13 | Clc1cccc(-c2cc(-c3ccc4c(c3)OCCO4)n[nH]2)c1 | 100 | 
14 | CC1(C)CCc2cc(-c3cc(-c4cccc(Br)c4)[nH]n3)ccc2O1 | 100 | 
15 | Clc1cccc(-c2cc(-c3ccc4c(c3)OCO4)n[nH]2)c1 | 100 | 
16 | CN(C)c1ccc(-c2cc(-c3cccc(F)c3)on2)cc1 | 50 to 90 | 
17 | Oc1ccc(-c2cc(-c3cccc(F)c3)[nH]n2)cc1O | 50 to 90 | 

Row | SMILES | cytotoxicity at 10 µM [1] [%] | further results
18 | Oc1cccc(-c2cc(-c3cccc(Cl)c3)[nH]n2)c1 | 50 to 90 | 
19 | Cn1nc(-c2ccc3c(c2)OCO3)cc1-c1cccc(Br)c1 | 50 to 90 | 
20 | Cc1ccc(Br)cc1-c1nc(-c2cccc(OC(F)(F)F)c2)no1 | 50 to 90 | 
21 | Brc1cccc(-c2cc(-c3ccc4ccoc4c3)n[nH]2)c1 | 50 to 90 | 
22 | FC1(F)Oc2ccc(-c3cc(-c4cccc(Br)c4)[nH]n3)cc2O1 | 20 to 50 | 
23 | Brc1cccc(-c2cc(-c3ccc4ccccc4c3)n[nH]2)c1 | 20 to 50 | 
24 | Nc1ccc(-c2cc(-c3cccc(Cl)c3)[nH]n2)cc1 | 20 to 50 | 
25 | COc1ccc(-c2noc(-c3cccc(Cl)c3)n2)cc1 | 20 to 50 | 
26 | Cn1ccc2cc(-c3cc(-c4cccc(Br)c4)[nH]n3)ccc21 | 20 to 50 | 
27 | Fc1cccc(-c2cc(-c3ccc4c(c3)OCO4)n[nH]2)c1 | < 20 | 
28 | CN(C)c1ccc(-c2cc(-c3cccc(Br)c3)no2)cc1 | < 20 | 
29 | Brc1cccc(-c2nc(-c3ccc4c(c3)OCO4)no2)c1 | < 20 | 
30 | Clc1cc(Cl)cc(-c2nc(-c3ccc4c(c3)OCO4)no2)c1 | < 20 | 
31 | Oc1ccc(-c2cc(-c3cccc(Br)c3)[nH]n2)cc1O [anle138c] |  | morphological changes (SK-MEL-5 melanoma cells [2]): major morphological changes; morphology (WM1158 melanoma cells [3]): did not show a significantly altered morphology; morphological changes (WM983-B melanoma cells [4]): major morphological changes; levels of punctuate LC3 loci (SK-MEL-5 melanoma cells [5]): even higher levels; cells with punctuate upregulation of LC3 (WM983-B melanoma cells [6]; 24 hr, cells still attached): 8%; cells with punctuate upregulation of LC3 (WM983-B melanoma cells [6]; 96 hr): 78%; proliferation (WM1158 melanoma cells [7]): reduced proliferation only after 48 hr; binding to α-synuclein monomers (α-synuclein monomers): Neither of these two compounds binds to α-synuclein monomers; effect on WM983-B cells in initial screen [8]: significantly affected; binding to FBS (Binding to FBS): bind strongly; cleaved caspase 3 (apoptosis) [9]: nor were they positive for cleaved caspase 3
32 | CN(C)c1ccc(-c2cc(-c3cccc(Br)c3)[nH]n2)cc1 [anle253b, 5-(3-Bromophenyl)-3-(4-dimethylaminophenyl)-1H-pyrazole] |  | effect on WM983-B cells in initial screen [8]: significantly affected
33 | Oc1ccc(-c2cc(-c3cccc(Br)c3)[nH]n2)cc1O [drawing 77] | 100 | 
34 | CN(C)c1ccc(-c2cc(-c3cccc(Br)c3)[nH]n2)cc1 [drawing 79] | 100 | 
